Key:
hENPP2 [1] = biological target: T1, hENPP2 (UniProtKB/SwissProt Q13822) (Homo sapiens (Human), UniProt Q13822); test: hENPP2 biochemical assay, LPC as substrate; details: LPC (palmitoyl 16:0) as substrate
Experimental: The principle of the assay consists in quantifying the released choline with an enzymatic method using choline oxidase and peroxidase. Choline oxydation by choline oxydase releases betaine and peroxide. The latter is quantified in presence of HRP that converts the peroxide detection agent TOOS and 4-aminoantipyrine into quinoneimine dye. The appearance of quinoneimine dye is measured spectrophotometrically at 555 nm and is proportional to the amount of choline released by ENPP2. Inhibition of ENPP2 will result in a decrease of the signal.
Compound IC50 values are determined in a hENPP2 (UniProtKB/SwissProt Sequence ref Q13822) biochemical assay using LPC as substrate.
The enzyme is diluted in 50 mM Tris-HCl pH 8.5, 500 mM NaCl, 5 mM KCl, 10 mM CaCl2, 0.1% fatty acid free BSA in a total volume of 10 μL. the reaction is started by the addition of 10 μL of 150 μM LPC (palmitoyl 16:0) diluted in the same buffer as described above and the mixture is incubated at 37° C. for 30 min. The reaction is terminated and choline quantified by the addition of a 25 μL of a mixture containing 0.6 U/mL of choline oxidase, 0.6 U/mL of peroxydase, 1.8 mM TOOS, 1.2 mM amino-antipyrine, 20 mM EGTA (stop-developer solution) diluted in the buffer described above. […] is read on the Envision after an incubation of 30 min at room temperature (Excitation 555 nm, excitation light=70%).

hENPP2 [2] = biological target: T1, hENPP2; test: fluorescent hENPP2 biochemical assay, FS-3 as substrate; details: read-out: FS3-IC50
Experimental: Compound IC50 values are determined in a fluorescent hENPP2 (UniProtKB/SwissProt Sequence ref Q13822) biochemical assay using the fluorogenic autotaxin substrate FS-3 as substrate. FS-3 is a doubly labeled analog of LPC wherein the fluorophore is quenched through intramolecular energy transfer. Without hENPP2, the emission of the probe is quenched. If the substrate is hydrolyzed by hENPP2, the emission of the probe is not quenched anymore resulting in a fluorescence increase.
The enzyme is diluted in 50 mM Tris-HCl pH 8.0, 250 mM NaCl, 5 mM KCl, 1 mM MgCl2, 1 mM CaCl2, 0.1% fatty acid free BSA in a total volume of 20 μL. Enzyme mixture is added to compounds and the resulting mixture is incubated for 30 min at room temperature under shaking. The reaction is started by the addition of 20 μL of 0.75 μM FS-3 diluted in the same buffer as described above and the mixture is incubated at 30° C. for 30 min. Fluorescence is read on the Envision (Excitation 485 nm, emission 520 nm).

| SMILES | IC50 (hENPP2 [1]) [nM] | IC50 (hENPP2 [2]) [nM] |
| --- | --- | --- |
| CCc1nc2ccc(N3CCN(CC(=O)NC)CC3)cn2c1N(C)c1nc(-c2ccc(F)cc2)c(C#N)s1 [Compound 22, 2-(4-(3-((5-cyano-4-(4-fluorophenyl)thiazol-2-yl)(methyl)amino)-2-ethylimidazo[1,2-a]pyridin-6-yl)piperazin-1-yl)-N-methylacetamide] | 0.01 to 100 | 0.01 to 100 |
| CCc1nc2ccc(N3CCN(C(=O)OC(C)(C)C)CC3)cn2c1N(C)c1nc(-c2ccc(F)cc2)cs1 [Compound 23, tert-butyl 4-(2-ethyl-3-((4-(4-fluorophenyl)thiazol-2-yl)(methyl)amino)imidazo[1,2-a]pyridin-6-yl)piperazine-1-carboxylate] | > 1000 | 0.01 to 100 |
| CCc1nc2ccc(N3CCN(CC(=O)N4CC(O)C4)CC3)cn2c1N(C)c1nc(-c2ccc(F)cc2)cs1 [Compound 24, 2-(4-(2-ethyl-3-((4-(4-fluorophenyl)thiazol-2-yl)(methyl)amino)imidazo[1,2-a]pyridin-6-yl)piperazin-1-yl)-1-(3-hydroxyazetidin-1-yl)ethanone] | 100 to 500 | 0.01 to 100 |
| CCc1nc2ccc(N3CCN(CC(=O)N4CC[C@H](O)C4)CC3)cn2c1N(C)c1nc(-c2ccc(F)cc2)cs1 [Compound 25, (S)-2-(4-(2-ethyl-3-((4-(4-fluorophenyl)thiazol-2-yl)(methyl)amino)imidazo[1,2-a]pyridin-6-yl)piperazin-1-yl)-1-(3-hydroxypyrrolidin-1-yl)ethanone] | 100 to 500 | 0.01 to 100 |
| CCc1nc2ccc(N3CCN(CC(=O)N4CCC(NC(C)=O)C4)CC3)cn2c1N(C)c1nc(-c2ccc(F)cc2)cs1 (centres unmarked) [Compound 27, N-(1-(2-(4-(2-ethyl-3-((4-(4-fluorophenyl)thiazol-2-yl)(methyl)amino)imidazo[1,2-a]pyridin-6-yl)piperazin-1-yl)acetoyl)pyrrolidin-3-yl)acetamide] | 100 to 500 | 0.01 to 100 |
| CCc1nc2ccc(N3CCN(CC(=O)N(C)C)CC3)cn2c1N(C)c1nc(-c2ccc(F)cc2)cs1 [Compound 35, 2-(4-(2-ethyl-3-((4-(4-fluorophenyl)thiazol-2-yl)(methyl)amino)imidazo[1,2-a]pyridin-6-yl)piperazin-1-yl)-N,N-dimethylacetamide] | 100 to 500 | 0.01 to 100 |
| CCOC(=O)CN1CCN(c2ccc3nc(CC)c(N(C)c4nc(-c5ccc(F)cc5)cs4)n3c2)CC1 [Compound 36, ethyl 2-(4-(2-ethyl-3-((4-(4-fluorophenyl)thiazol-2-yl)(methyl)amino)imidazo [1,2-a]pyridin-6-yl)piperazin-1-yl)acetate] | 100 to 500 | 0.01 to 100 |
| CCc1nc2ccc(N3CCN(CC#N)CC3)cn2c1N(C)c1nc(-c2ccc(F)cc2)cs1 [Compound 38, 2-(4-(2-ethyl-3-((4-(4-fluorophenyl)thiazol-2-yl)(methyl)amino)imidazo[1,2-a]pyridin-6-yl)piperazin-1-yl)acetonitrile] | > 1000 | 0.01 to 100 |
| CCc1nc2ccc(N3CCN(Cc4nnnn4C4CC4)CC3)cn2c1N(C)c1nc(-c2ccc(F)cc2)cs1 [Compound 39, N-(6-(4-((1-cyclopropyl-1H-tetrazol-5-yl)methyl)piperazin-1-yl)-2-ethylimidazo[1,2-a]pyridin-3-yl)-4-(4-fluorophenyl)-N-methylthiazol-2-amine] | > 1000 | 0.01 to 100 |
| CCc1nc2ccc(N3CCN(Cc4ncon4)CC3)cn2c1N(C)c1nc(-c2ccc(F)cc2)cs1 [Compound 41, N-(6-(4-((1,2,4-oxadiazol-3-yl)methyl)piperazin-1-yl)-2-ethylimidazo[1,2-a]pyridin-3-yl)-4-(4-fluorophenyl)-N-methylthiazol-2-amine] | > 1000 | 0.01 to 100 |
| CCc1nc2ccc(N3CCN(CC(=O)O)CC3)cn2c1N(C)c1nc(-c2ccc(F)cc2)cs1 [Compound 42, 2-(4-(2-ethyl-3-((4-(4-fluorophenyl)thiazol-2-yl)(methyl)amino)imidazo[1,2-a]pyridin-6-yl)piperazin-1-yl)acetic acid] | > 1000 | 0.01 to 100 |
| CCc1nc2ccc(C3CCN(S(C)(=O)=O)CC3)cn2c1N(C)c1nc(-c2ccc(F)cc2)c(Br)s1 [Compound 135, 5-bromo-N-(2-ethyl-6-(1-(methylsulfonyl)piperidin-4-yl)imidazo [1,2-a]pyridin-3-yl)-4-(4-fluorophenyl)-N-methylthiazol-2-amine] | – | 0.01 to 100 |

Continued, values first:

| IC50 (hENPP2 [1]) [nM] | IC50 (hENPP2 [2]) [nM] | SMILES |
| --- | --- | --- |
| 500 to 1000 | – | CCc1nc2ccc(N3CCN(C(=O)C4CC(=O)N(Cc5ccccc5)C4)CC3)cn2c1N(C)c1nc(-c2ccc(F)cc2)cs1 (centres unmarked) [Compound 205, 1-Benzyl-4-[4-(2-ethyl-3-{[4-(4-fluoro-phenyl)-thiazol-2-yl]-methyl-amino}-imidazo[1,2-a]pyridin-6-yl)-piperazine-1-carbonyl]-pyrrolidin-2-one] |
| 100 to 500 | – | CCc1nc2ccc(C3CCN(CC(=O)N4CCC(O)C4)CC3)cn2c1N(C)c1nc(-c2ccc(F)cc2)cs1 (centres unmarked) [Compound 223, 2-(4-(2-ethyl-3-((4-(4-fluorophenyl)thiazol-2-yl)(methyl)amino)imidazo[1,2-a]pyridin-6-yl)piperidin-1-yl)-1-(3-hydroxypyrrolidin-1-yl)ethanone] |
| > 1000 | – | CCOC(=O)C(=O)N1CCN(c2ccc3nc(CC)c(N(C)c4nc(-c5ccc(F)cc5)cs4)n3c2)CC1 [Compound 228, ethyl 2-(4-(2-ethyl-3-((4-(4-fluorophenyl)thiazol-2-yl)(methyl)amino)imidazo[1,2-a]pyridin-6-yl)piperazin-1-yl)-2-oxoacetate] |
| – | 0.01 to 100 | CCc1nc2ccc(C3=CCN(C(=O)OC(C)(C)C)CC3)cn2c1N(C)c1nc(-c2ccc(Cl)cc2)cs1 [Compound 230, tert-butyl 4-(3-((4-(4-chlorophenyl)thiazol-2-yl)(methyl)amino)-2-ethylimidazo[1,2-a]pyridin-6-yl)-5,6-dihydropyridine-1(2H)-carboxylate] |
| – | 0.01 to 100 | CCc1nc2ccc(C3=CCSCC3)cn2c1N(C)c1nc(-c2ccc(Cl)cc2)cs1 [Compound 231, 4-(4-chlorophenyl)-N-(6-(3,6-dihydro-2H-thiopyran-4-yl)-2-ethylimidazo[1,2-a]pyridin-3-yl)-N-methylthiazol-2-amine] |
| – | 0.01 to 100 | CCc1nc2ccc(N3CCC(F)(F)CC3)cn2c1N(C)c1nc(-c2ccc(F)cc2)cs1 [Compound 232, N-(6-(4,4-difluoropiperidin-1-yl)-2-ethylimidazo[1,2-a]pyridin-3-yl)-4-(4-fluorophenyl)-N-methylthiazol-2-amine] |
| – | 0.01 to 100 | CCc1nc2ccc(N3CCN(C(=O)OC(C)(C)C)CC3)cn2c1N(C)c1nc(-c2ccc(Cl)cc2)cs1 [Compound 234, tert-butyl 4-(3-((4-(4-chlorophenyl)thiazol-2-yl)(methyl)amino)-2-ethylimidazo[1,2-a]pyridin-6-yl)piperazine-1-carboxylate] |
| – | 0.01 to 100 | CCc1nc2ccc(C3CCN(CC4CCCCC4)CC3)cn2c1N(C)c1nc(-c2ccc(F)cc2)cs1 [Compound 235, N-(6-(1-(cyclohexylmethyl)piperidin-4-yl)-2-ethylimidazo[1,2-a]pyridin-3-yl)-4-(4-fluorophenyl)-N-methylthiazol-2-amine] |
| – | 100 to 500 | CCc1nc2ccc(C3=NCC(C)O3)cn2c1N(C)c1nc(-c2ccc(F)cc2)cs1 (centres unmarked) [Compound 236, N-(2-ethyl-6-(5-methyl-4,5-dihydrooxazol-2-yl)imidazo[1,2-a]pyridin-3-yl)-4-(4-fluorophenyl)-N-methylthiazol-2-amine] |
| – | 0.01 to 100 | CCc1nc2ccc(C3=NC(C)CO3)cn2c1N(C)c1nc(-c2ccc(F)cc2)cs1 (centres unmarked) [Compound 237, N-(2-ethyl-6-(4-methyl-4,5-dihydrooxazol-2-yl)imidazo[1,2-a]pyridin-3-yl)-4-(4-fluorophenyl)-N-methylthiazol-2-amine] |
| – | 100 to 500 | CCc1nc2ccc(C3=NC(C(=O)O)CO3)cn2c1N(C)c1nc(-c2ccc(F)cc2)cs1 (centres unmarked) [Compound 238, 2-(2-ethyl-3-((4-(4-fluorophenyl)thiazol-2-yl)(methyl)amino)imidazo[1,2-a]pyridin-6-yl)-4,5-dihydro-oxazole-4-carboxylic acid] |
| – | 0.01 to 100 | CCc1nc2ccc(N3CCNCC3)cn2c1N(C)c1nc(-c2ccc(F)cc2)cs1 [Gen-10-e] |

Reference: patent US9670204B2, “Compounds and pharmaceutical compositions thereof for the treatment of inflammatory disorders” (Galapagos NV, priority 2013, dated 2017)
